Results from ChEMBL document CHEMBL2150867, “Comparative study of the affinity and metabolism of type I and type II binding quinoline carboxamide analogues by cytochrome P450 3A4” (J Med Chem, 2012).

Experiments:
Type in all cases: ADME
Cytochrome P450 3A4 [1] = molecular target: T1, Cytochrome P450 3A4 (Homo sapiens, UniProt P08684); test: Intrinsic clearance assessed as CYP3A4-mediated clearance; settings: recombinant enzyme
Cytochrome P450 3A4 [2] = molecular target: T1, Cytochrome P450 3A4; test: Binding affinity to recombinant CYP3A4 NF-14 expressed in Escherichia coli at maximum spectrum 420 to 435 and a trough at 390 to 405 nm by UV-Visible spectroscopy; settings: recombinant enzyme, 0.405 µM
Cytochrome P450 3A4 [3] = molecular target: T1, Cytochrome P450 3A4; test: Inhibition of recombinant CYP3A4 NF-14 expressed in Escherichia coli assessed as formation of 6-beta-hydroxytestosterone using testosterone as substrate after 5 mins by HPLC based UV method
Cytochrome P450 3A4 [4] = molecular target: T1, Cytochrome P450 3A4; test: Metabolic stability of the compound assessed as CYP3A4 NF-14-mediated aromatic hydroxylation at ring-B
Cytochrome P450 3A4 [5] = molecular target: T1, Cytochrome P450 3A4; test: (§1) Metabolic stability of the compound assessed as CYP3A4 NF-14-mediated N-demethylation
CYP3A4 = CYP3A4 (Homo sapiens, UniProt P08684); test: as §1; settings: human, CYP3A4 NF-14
Cytochrome P450 3A4 [6] = molecular target: T1, Cytochrome P450 3A4; test: Binding affinity to recombinant CYP3A4 NF-14 expressed in Escherichia coli at maximum spectrum 385 to 390 nm and a trough at 415 to 420 nm by UV-Visible spectroscopy; settings: recombinant enzyme
Cytochrome P450 3A4 [7] = molecular target: T1, Cytochrome P450 3A4; test: Metabolic stability of the compound assessed as CYP3A4 NF-14-mediated ratio of product formation from functional group oxidation at ring A to aromatic hydroxylation at ring B
Cytochrome P450 3A4 [8] = molecular target: T1, Cytochrome P450 3A4; test: Metabolic stability of the compound assessed as CYP3A4 NF-14-mediated aromatic hydroxylation at ring-A
Cytochrome P450 3A4 [9] = molecular target: T1, Cytochrome P450 3A4; test: Metabolic stability of the compound assessed as CYP3A4 NF-14-mediated ratio of product formation from functional group oxidation at ring A to aromatic hydroxylation at ring A

T1 sequence (P08684 whole entry): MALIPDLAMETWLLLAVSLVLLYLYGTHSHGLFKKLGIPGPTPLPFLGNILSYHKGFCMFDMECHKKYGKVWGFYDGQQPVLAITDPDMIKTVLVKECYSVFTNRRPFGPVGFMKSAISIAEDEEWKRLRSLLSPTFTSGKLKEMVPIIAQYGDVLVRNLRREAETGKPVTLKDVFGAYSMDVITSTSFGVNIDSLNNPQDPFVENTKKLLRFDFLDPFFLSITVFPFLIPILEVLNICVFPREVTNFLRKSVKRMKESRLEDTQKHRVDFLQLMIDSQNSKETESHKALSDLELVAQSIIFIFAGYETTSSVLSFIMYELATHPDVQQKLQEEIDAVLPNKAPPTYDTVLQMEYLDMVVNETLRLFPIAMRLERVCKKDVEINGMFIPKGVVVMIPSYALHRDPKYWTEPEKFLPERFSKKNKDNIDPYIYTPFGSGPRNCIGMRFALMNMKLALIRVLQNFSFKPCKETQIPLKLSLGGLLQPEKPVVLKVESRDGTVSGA
Sequence of CYP3A4 (P08684 whole entry): as above

Row | SMILES | CL (Cytochrome P450 3A4 [1]) | Activity (Cytochrome P450 3A4 [2]) | Ki (Cytochrome P450 3A4 [3]) | Activity (Cytochrome P450 3A4 [6]) | also measured
1 | Cc1ccc(NC(=O)c2cc(-c3ccncn3)nc3ccccc23)cc1 | 4 µM⁻¹ min⁻¹ | Active | 3 µM |  | 
2 | CN(C)c1ccc(NC(=O)c2cc(-c3ccccc3)nc3ccccc23)cc1 | 9.6 µM⁻¹ min⁻¹ |  | 14.4 µM | Active | Kcat (Cytochrome P450 3A4 [4]): 0 s⁻¹; Kcat (Cytochrome P450 3A4 [5]): 0.465 s⁻¹; Km (CYP3A4): 2.9 µM
3 | O=C(Nc1ccccc1)c1cc(-c2ccccc2)nc2ccccc12 | 1.3 µM⁻¹ min⁻¹ |  | 4.1 µM | Active | Ratio (Cytochrome P450 3A4 [7]): 1.3
4 | Cc1ccc(NC(=O)c2cc(-c3ccccc3)nc3ccccc23)cc1 | 3.4 µM⁻¹ min⁻¹ |  | 3.97 µM | Active | Ratio (Cytochrome P450 3A4 [7]): 6
5 | COc1ccc(NC(=O)c2cc(-c3ccncc3)nc3ccccc23)cc1 | 4.4 µM⁻¹ min⁻¹ | Active | 0.54 µM |  | Kcat (Cytochrome P450 3A4 [8]): 0.0217 s⁻¹; Km (Cytochrome P450 3A4 [8]): 0.7 µM; Ratio (Cytochrome P450 3A4 [9]): 1.4
6 | CN(C)c1ccc(NC(=O)c2cc(-c3ccncc3)nc3ccccc23)cc1 | 12.7 µM⁻¹ min⁻¹ | Active | 0.8 µM |  | Kcat (Cytochrome P450 3A4 [8]): 0 s⁻¹; Kcat (Cytochrome P450 3A4 [5]): 0.218 s⁻¹
7 | Cc1ccc(NC(=O)c2cc(-c3ccncc3)nc3ccccc23)cc1 | 9.7 µM⁻¹ min⁻¹ | Active | 0.54 µM |  | Ratio (Cytochrome P450 3A4 [9]): 4.4
8 | COc1ccc(NC(=O)c2cc(-c3ccccn3)nc3ccccc23)cc1 | 2.2 µM⁻¹ min⁻¹ |  | 11.9 µM | Active | 
9 | CN(C)c1ccc(NC(=O)c2cc(-c3ccccn3)nc3ccccc23)cc1 | 1 µM⁻¹ min⁻¹ |  | 32.9 µM | Active | 
10 | Cc1ccc(NC(=O)c2cc(-c3ccccn3)nc3ccccc23)cc1 | 2.9 µM⁻¹ min⁻¹ |  | 3.9 µM | Active | 
11 | COc1ccc(NC(=O)c2cc(-c3cnccn3)nc3ccccc23)cc1 | 3.4 µM⁻¹ min⁻¹ | Active | 20.1 µM |  | 
12 | CN(C)c1ccc(NC(=O)c2cc(-c3cnccn3)nc3ccccc23)cc1 | 2.8 µM⁻¹ min⁻¹ | Active | 15.9 µM |  | 
13 | O=C(Nc1ccccc1)c1cc(-c2cnccn2)nc2ccccc12 | 2.5 µM⁻¹ min⁻¹ | Active | 6.9 µM |  | 
14 | Cc1ccc(NC(=O)c2cc(-c3cnccn3)nc3ccccc23)cc1 | 3.3 µM⁻¹ min⁻¹ | Active | 2.7 µM |  | 
15 | COc1ccc(NC(=O)c2cc(-c3ccncn3)nc3ccccc23)cc1 | 3.3 µM⁻¹ min⁻¹ | Active | 2.2 µM |  | 
16 | CN(C)c1ccc(NC(=O)c2cc(-c3ccncn3)nc3ccccc23)cc1 | 3.4 µM⁻¹ min⁻¹ | Active | 8.4 µM |  | 
17 | O=C(Nc1ccccc1)c1cc(-c2ccncn2)nc2ccccc12 | 3.2 µM⁻¹ min⁻¹ | Active | 2.2 µM |  | 
18 | O=C(Nc1ccccc1)c1cc(-c2ccncc2)nc2ccccc12 | 12.1 µM⁻¹ min⁻¹ | Active | 0.7 µM |  | Ratio (Cytochrome P450 3A4 [9]): 1.3
19 | O=C(Nc1ccccc1)c1cc(-c2ccccn2)nc2ccccc12 | 1.3 µM⁻¹ min⁻¹ |  | 14.5 µM | Active | 
